From PubChem BioAssay AID264 (DTP/NCI, 2004)
Several values for one entry are separate records, joined by “and”; a condition that tells them apart may be missing. Identical values can stand only once. Results filed as inconclusive are left out.

System: nude mice, LX-1 lung xenograft intrarenal, tumor weight T/C
Test: NCI In Vivo Anticancer Drug Screen. Data for tumor model Human Lung LX-1 Xenograft (intrarenal inoculation) in NU/NU Swiss (nude) mice
Settings: endpoint: mean tumor weight change, higher = larger tumour
How it was run: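 Compound-treated mice carrying transplanted tumors were compared with vehicle-treated controls. Tumor size was the measured end point, and the value is the treated-group measurement divided by the control-group measurement (T/C).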

[1] = dose: 150.0 mg/kg/injection, schedule: Q04DX003 (sc), vehicle: saline with Tween-80
[2] = dose: 300.0 mg/kg/injection, schedule: Q04DX003 (sc), vehicle: saline with Tween-80
[3] = dose: 600.0 mg/kg/injection, schedule: Q04DX003 (sc), vehicle: saline with Tween-80
[4] = dose: 1200.0 mg/kg/injection, schedule: Q04DX003 (sc), vehicle: saline with Tween-80
[5] = dose: 150.0 mg/kg/injection, schedule: Q04DX003 (sc), vehicle: Klucel (hydroxypropylcellulose) (HPC)
[6] = dose: 300.0 mg/kg/injection, schedule: Q04DX003 (sc), vehicle: Klucel (hydroxypropylcellulose) (HPC)
[7] = dose: 600.0 mg/kg/injection, schedule: Q04DX003 (sc), vehicle: Klucel (hydroxypropylcellulose) (HPC)
[8] = dose: 50.0 mg/kg/injection, schedule: Q01DX010 (sc), vehicle: saline with Tween-80
[9] = dose: 200.0 mg/kg/injection, schedule: Q01DX010 (sc), vehicle: saline with Tween-80
[10] = dose: 100.0 mg/kg/injection, schedule: Q01DX010 (sc), vehicle: saline with Tween-80
[11] = dose: 50.0 mg/kg/injection, schedule: Q01DX010 (sc), vehicle: saline

`CC(C)NC(=O)OCc1c(COC(=O)NC(C)C)c(-c2ccc(Cl)c(Cl)c2)n2c1CCC2` was tested, and the T/C (dose: 25.0 mg/kg/injection, schedule: Q01DX010 (sc), vehicle: distilled water + Tween-80) was 27 % of control, the T/C (dose: 200.0 mg/kg/injection, schedule: Q04DX003 (sc), vehicle: distilled water + Tween-80) was 68 % of control and the T/C (dose: 400.0 mg/kg/injection, schedule: Q04DX003 (sc), vehicle: distilled water + Tween-80) was 50 % of control. For the same molecule, the T/C (dose: 800.0 mg/kg/injection, schedule: Q04DX003 (sc), vehicle: distilled water + Tween-80) was 40 % of control and the T/C (dose: 1600.0 mg/kg/injection, schedule: Q04DX003 (sc), vehicle: distilled water + Tween-80) was 90 % of control.

For `CCCN1COC(OCC)C(C)(C)C1` (stereo not given), the T/C [1] was 92 % of control, the T/C [2] was 90 % of control and the T/C [3] was 106 % of control. The T/C [4] was 107 % of control.

For `O=NN(CCCl)C(=O)NC1[C@H](O)CCC[C@@H]1O` (stereo not given in full), the T/C (dose: 5.0 mg/kg/injection, schedule: Q04DX003 (sc), vehicle: saline) was 25 % of control and 30 % of control and 48 % of control.

With `CN(C=O)C(C(=O)Nc1cccc2c(OC(=O)C(N(C)C=O)(N(C)C=O)N(C)C=O)c(N=Nc3ccc(S(=O)(=O)Nc4nccs4)cc3)cc(N=Nc3ccc(S(=O)(=O)Nc4nccs4)cc3)c12)(N(C)C=O)N(C)C=O` (tested in a mixture with another compound) the T/C [1] was 109 % of control, the T/C [2] was 71 % of control and the T/C [3] was 120 % of control. For the same molecule, the T/C [4] was 95 % of control.

With `CCCCCCCC(=O)OCC(=O)[C@]1(O)Cc2c(O)c3c(c(O)c2[C@@H](OC2CC(N)C(O)C(C)O2)C1)C(=O)c1c(OC)cccc1C3=O` (stereo not given in full) the T/C (dose: 2.0 mg/kg/injection, schedule: Q01DX010 (sc), vehicle: saline) was 104 % of control and the T/C (dose: 4.0 mg/kg/injection, schedule: Q01DX010 (sc), vehicle: saline) was 173 % of control.

In the case of `CC(=O)OCC1OC(n2ccc(N)nc2=O)C(OC(C)=O)C1OC(C)=O` (stereo not given), the T/C (dose: 300.0 mg/kg/injection, schedule: Q04DX003 (sc), vehicle: suspension in saline) is reported as 156 % of control, the T/C (dose: 600.0 mg/kg/injection, schedule: Q04DX003 (sc), vehicle: suspension in saline) is reported as 84 % of control and the T/C (dose: 1200.0 mg/kg/injection, schedule: Q04DX003 (sc), vehicle: suspension in saline) is reported as 23 % of control. For the same molecule, the T/C (dose: 2400.0 mg/kg/injection, schedule: Q04DX003 (sc), vehicle: suspension in saline) was 94 % of control.

`CCn1cnc2c(=S)nc[nH]c21` was tested, and the T/C (dose: 150.0 mg/kg/injection, schedule: Q04DX003 (sc), vehicle: saline) was 159 % of control and the T/C (dose: 600.0 mg/kg/injection, schedule: Q04DX003 (sc), vehicle: saline) was 224 % of control.

`O=C(/C=C(\Cl)C(=O)NO)NO` was tested, and the T/C (dose: 100.0 mg/kg/injection, schedule: Q04DX003 (sc), vehicle: saline) was 103 % of control.

`Nc1cc(Cl)c2[nH]cnc2n1` was tested, and the T/C (dose: 200.0 mg/kg/injection, schedule: Q04DX003 (sc), vehicle: water) was 121 % of control and the T/C (dose: 400.0 mg/kg/injection, schedule: Q04DX003 (sc), vehicle: water) was 94 % of control.

For `COc1cc(C(=O)c2cc3c(cc2C)OCO3)cc(OC)c1OC`, the T/C [5] was 78 % of control, the T/C [6] was 71 % of control and the T/C [7] was 80 % of control. For the same molecule, the T/C (dose: 1200.0 mg/kg/injection, schedule: Q04DX003 (sc), vehicle: Klucel (hydroxypropylcellulose) (HPC)) was 82 % of control.

`COc1ccc2nc3cc(Cl)ccc3c(NCCNCCNCCNc3c4ccc(Cl)cc4nc4ccc(OC)cc34)c2c1` was tested, and the T/C (dose: 12.5 mg/kg/injection, schedule: Q01DX010 (sc), vehicle: saline with Tween-80) was 81 % of control, the T/C [8] was 106 % of control and the T/C [9] was 70 % of control. The T/C (dose: 400.0 mg/kg/injection, schedule: Q01DX010 (sc), vehicle: saline with Tween-80) was 46 % of control.

`NC(=S)N/N=C\c1ncccc1OCc1cccc(N)c1` was tested, and the T/C [2] was 158 % of control, the T/C [3] was 159 % of control and the T/C [4] was 105 % of control. For the same molecule, the T/C (dose: 2400.0 mg/kg/injection, schedule: Q04DX003 (sc), vehicle: saline with Tween-80) was 96 % of control.

With `CCC[CH2][Sn]1([CH2]CCC)[O]C2C(CO)OC(n3ccc(N)nc3=O)C2[O]1` (stereo not given) the T/C (dose: 12.0 mg/kg/injection, schedule: Q04DX003 (sc), vehicle: Klucel (hydroxypropylcellulose) (HPC)) was 82 % of control, the T/C (dose: 24.0 mg/kg/injection, schedule: Q04DX003 (sc), vehicle: Klucel (hydroxypropylcellulose) (HPC)) was 66 % of control and the T/C (dose: 48.0 mg/kg/injection, schedule: Q04DX003 (sc), vehicle: Klucel (hydroxypropylcellulose) (HPC)) was 115 % of control.

`COC1=CC(=O)N(C(=O)C2CSC(C(CO)NC(=O)c3csc(/C=N/O)n3)=N2)C1` (stereo not given) was tested, and the T/C (dose: 225.0 mg/kg/injection, schedule: Q04DX003 (sc), vehicle: Klucel (hydroxypropylcellulose) (HPC)) was 59 % of control, the T/C (dose: 450.0 mg/kg/injection, schedule: Q04DX003 (sc), vehicle: Klucel (hydroxypropylcellulose) (HPC)) was 112 % of control and the T/C (dose: 900.0 mg/kg/injection, schedule: Q04DX003 (sc), vehicle: Klucel (hydroxypropylcellulose) (HPC)) was 87 % of control. The T/C (dose: 1800.0 mg/kg/injection, schedule: Q04DX003 (sc), vehicle: Klucel (hydroxypropylcellulose) (HPC)) was 50 % of control.

`C[C@@H](CN1CC(=O)NC(=O)C1)N1CC(=O)NC(=O)C1` was tested, and the T/C [8] was 91 % of control and the T/C [10] was 34 % of control.

For `O=Cc1ccc([N+](=O)[O-])s1`, the T/C (dose: 25.0 mg/kg/injection, schedule: Q01DX010 (sc), vehicle: saline with Tween-80) was 94 % of control, the T/C [8] was 105 % of control and the T/C [10] was 81 % of control. The T/C [9] was 30 % of control.

`CN=C(N)N/N=C(\C)c1ccc2c(c1)Cc1cc(/C(C)=N/NC(N)=NC)ccc1-2` was tested, and the T/C (dose: 12.5 mg/kg/injection, schedule: Q04DX003 (sc), vehicle: saline with Tween-80) was 99 % of control, the T/C (dose: 25.0 mg/kg/injection, schedule: Q04DX003 (sc), vehicle: saline with Tween-80) was 90 % of control and the T/C (dose: 50.0 mg/kg/injection, schedule: Q04DX003 (sc), vehicle: saline with Tween-80) was 67 % of control. For the same molecule, the T/C (dose: 100.0 mg/kg/injection, schedule: Q04DX003 (sc), vehicle: saline with Tween-80) was 69 % of control.

With `O=C([CH-]C(=O)C(F)(F)F)c1ccccc1.O=C([CH-]C(=O)C(F)(F)F)c1ccccc1.O=C([CH-]C(=O)C(F)(F)F)c1ccccc1.O=C([CH-]C(=O)C(F)(F)F)c1ccccc1.[Eu+3].c1ccncc1` the T/C (dose: 50.0 mg/kg/injection, schedule: Q01DX010 (sc), vehicle: Klucel (hydroxypropylcellulose) (HPC)) was 85 % of control, the T/C (dose: 200.0 mg/kg/injection, schedule: Q01DX010 (sc), vehicle: Klucel (hydroxypropylcellulose) (HPC)) was 49 % of control and the T/C (dose: 400.0 mg/kg/injection, schedule: Q01DX010 (sc), vehicle: Klucel (hydroxypropylcellulose) (HPC)) was 40 % of control. For the same molecule, the T/C (dose: 800.0 mg/kg/injection, schedule: Q01DX010 (sc), vehicle: Klucel (hydroxypropylcellulose) (HPC)) was 65 % of control.

In the case of `CS(=O)(=O)OCCN(CCOS(C)(=O)=O)c1ccc(C=O)cc1`, the T/C (dose: 12.5 mg/kg/injection, schedule: Q01DX010 (sc), vehicle: saline) is reported as 188 % of control, the T/C (dose: 25.0 mg/kg/injection, schedule: Q01DX010 (sc), vehicle: saline) is reported as 71 % of control and the T/C [11] is reported as 33 % of control.

In the case of `Cc1ccc(NCCN(C)C)c2c(=O)c3cc(O)ccc3sc12`, the T/C (dose: 75.0 mg/kg/injection, schedule: Q04DX003 (sc), vehicle: Klucel (hydroxypropylcellulose) (HPC)) is reported as 97 % of control, the T/C [5] is reported as 68 % of control and the T/C [6] is reported as 72 % of control. The T/C [7] was 84 % of control.

In the case of `Cc1cc(SCC(=O)c2ccc(Br)cc2)cc(C)[o+]1`, the T/C [11] is reported as 111 % of control and the T/C (dose: 200.0 mg/kg/injection, schedule: Q01DX010 (sc), vehicle: saline) is reported as 116 % of control.

For `C=CC(C)(C)n1cc(C2=C(O)C(=O)C(c3cn(C(C)(C)C=C)c4ccccc34)=C(O)C2=O)c2ccccc21`, the T/C (dose: 50.0 mg/kg/injection, schedule: Q04DX003 (sc), vehicle: Klucel (hydroxypropylcellulose) (HPC)) was 63 % of control, the T/C (dose: 100.0 mg/kg/injection, schedule: Q04DX003 (sc), vehicle: Klucel (hydroxypropylcellulose) (HPC)) was 71 % of control and the T/C (dose: 200.0 mg/kg/injection, schedule: Q04DX003 (sc), vehicle: Klucel (hydroxypropylcellulose) (HPC)) was 124 % of control. The T/C (dose: 400.0 mg/kg/injection, schedule: Q04DX003 (sc), vehicle: Klucel (hydroxypropylcellulose) (HPC)) was 83 % of control.

`CC1(C)CC23C4COC(=O)C2CCC1C3CC4=O` (stereo not given) was tested, and the T/C (dose: 150.0 mg/kg/injection, schedule: Q04DX003 (sc), vehicle: DMSO) was 88 % of control, the T/C (dose: 300.0 mg/kg/injection, schedule: Q04DX003 (sc), vehicle: DMSO) was 51 % of control and the T/C (dose: 600.0 mg/kg/injection, schedule: Q04DX003 (sc), vehicle: DMSO) was 67 % of control. For the same molecule, the T/C (dose: 1200.0 mg/kg/injection, schedule: Q04DX003 (sc), vehicle: DMSO) was 63 % of control.
